How the values were obtained:
MIAPaCa-2 (pancreas) = test: In vitro cytotoxic activity MTT assay, MIAPaCa-2; assay type: cell-based; details: Homo sapiens, MIA PaCa-2; cells exposed for 96 hours; 50% inhibition of cell proliferation; read-out: Cytotoxicity activity IC50, MIAPaCa-2 (pancreas)
Method: (§1) Compounds 1-16 were screened for their in vitro cytotoxic activity utilizing a 3-(4,5-dimethyl-thiazol-2-yl)-2,5-diphenyltetrazolium bromide (MTT) assay against selected cancer human cell lines consisting of PC3 (prostate), HCT116 (colon), A375 (melanoma), H1299 (lung), MIAPaCa-2 (pancreas), HL60 (leukemia), MCF7 (breast), MDA-MB-231 (breast) (T. Mosmann, J. Immunol. Meth., 1983, 65, 55-63). The cells were cultured at 37° C. in RMPI1640 medium supplemented with 10% fetal bovine serum, 50 IU/mL penicillin, and 50 μg/mL streptomycin in a 5% CO2 incubator. All cells were sub-cultured 3 times/week by trypsinisation. Viable cells were seeded and allowed to adhere for 12 h before a test drug was added in 96-well plates at an initial density of 1.0×10^5 cells/mL. Tumor cell lines were separately exposed to various concentrations of the tested compounds followed by incubation at a temperature of 37° C. during 96 hours inside a medium of fresh RMPI 1640. Cells were subsequently incubated at 37° C. using MTT at 0.5 mg/mL during 4 hours. After removal of supernatant, formazan crystals were dissolved in isopropanol and the optical density was measured at 570 nm. CX-4945 was used as a positive control.

HCT116 (colon) = test: In vitro cytotoxic activity MTT assay, HCT116; assay type: cell-based; details: Homo sapiens, HCT-116; cells exposed for 96 hours; 50% inhibition of cell proliferation; read-out: Cytotoxicity activity IC50, HCT116 (colon)
Method: as §1

MDA-MB-231 (breast) = test: In vitro cytotoxic activity MTT assay, MDA-MB-231; assay type: cell-based; details: Homo sapiens, cells exposed for 96 hours, 50% inhibition of cell proliferation, read-out: Cytotoxicity activity IC50, MDA-MB-231 (breast)
Method: as §1

PC3 (prostate) = test: In vitro cytotoxic activity MTT assay, PC3; assay type: cell-based; details: Homo sapiens; cells exposed for 96 hours; 50% inhibition of cell proliferation; read-out: Cytotoxicity activity IC50, PC3 (prostate)
Method: as §1

recombinant human CK2 = target: T1, recombinant human CK2 (Homo sapiens, UniProt P68400); test: CK2 Kinase Assay (33P-ATP, substrate peptide RRRDDDSDDD); assay type: biochemical; details: final ATP concentration 15 μM; 10 min at 30° C.; eight concentrations; read-out: protein kinase CK2 IC50
T1 construct: purchased Millipore
Method: CK2 Kinase Assay was conducted using the protocol as described in Pierre F. et al; J. Med. Chem. 2011, 54, 635-654. The tested compounds in aqueous solution were added at a volume of 10 μL to a reaction mixture comprising 10 μL of assay dilution buffer (ADB; 20 mM MOPS, pH 7.2, 25 mM β-glycerol phosphate, 5 mM EGTA, 1 mM sodium orthovanadate, and 1 mM dithiothreitol), 10 μL of substrate peptide (RRRDDDSDDD, dissolved in ADB at a concentration of 1 mM), 10 μL of recombinant human CK2 (RRββ-holoenzyme, 25 ng dissolved in ADB; Millipore). Reactions were initiated by the addition of 10 μL of ATP solution (90%75 mMMgCl2, 75 µM ATP (final ATP concentration: 15 μM) dissolved in ADB; 10% [γ-33P] ATP (stock 1 mCi/100 μL; 3000 Ci/mmol (Perkin-Elmer) and maintained for 10 min at 30° C. The reactions were quenched with 100 μL of 0.75% phosphoric acid and then transferred to and filtered through a phosphor cellulose filter plate (Millipore). After washing each well five times with 0.75% phosphoric acid, the plate was dried under vacuum for 5 min and, following the addition of 15 μL of scintillation fluid to each well, the residual radioactivity was measured using a Wallac luminescence counter. The IC50 values were derived from eight concentrations of test inhibitors.

HL60 (leukemia) = test: In vitro cytotoxic activity MTT assay, HL60; assay type: cell-based; details: Homo sapiens, HL-60; cells exposed for 96 hours; 50% inhibition of cell proliferation; read-out: Cytotoxicity activity IC50, HL60 (leukemia)
Method: as §1

MCF7 (breast) = test: In vitro cytotoxic activity MTT assay, MCF7; assay type: cell-based; details: Homo sapiens, cells exposed for 96 hours, 50% inhibition of cell proliferation, read-out: Cytotoxicity activity IC50, MCF7 (breast)
Method: as §1

H1299 (lung) = test: In vitro cytotoxic activity MTT assay, H1299; assay type: cell-based; details: Homo sapiens, NCI-H1299; cells exposed for 96 hours; 50% inhibition of cell proliferation; read-out: Cytotoxicity activity IC50, H1299 (lung)
Method: as §1

A375 (melanoma) = test: In vitro cytotoxic activity MTT assay, A375; assay type: cell-based; details: Homo sapiens, A-375; cells exposed for 96 hours; 50% inhibition of cell proliferation; read-out: Cytotoxicity activity IC50, A375 (melanoma)
Method: as §1

T1 sequence (P68400 whole entry): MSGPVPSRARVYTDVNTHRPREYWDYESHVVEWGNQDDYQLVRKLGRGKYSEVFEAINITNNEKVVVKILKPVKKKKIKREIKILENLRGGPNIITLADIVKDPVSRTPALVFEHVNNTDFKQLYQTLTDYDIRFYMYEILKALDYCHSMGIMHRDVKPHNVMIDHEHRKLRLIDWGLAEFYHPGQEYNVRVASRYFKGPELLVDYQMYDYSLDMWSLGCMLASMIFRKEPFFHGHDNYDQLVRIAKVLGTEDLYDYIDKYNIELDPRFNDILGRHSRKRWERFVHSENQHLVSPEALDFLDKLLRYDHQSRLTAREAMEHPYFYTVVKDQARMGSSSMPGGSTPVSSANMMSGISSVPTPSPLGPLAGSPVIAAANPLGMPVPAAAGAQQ
T1 sequence (P67870 whole entry partner): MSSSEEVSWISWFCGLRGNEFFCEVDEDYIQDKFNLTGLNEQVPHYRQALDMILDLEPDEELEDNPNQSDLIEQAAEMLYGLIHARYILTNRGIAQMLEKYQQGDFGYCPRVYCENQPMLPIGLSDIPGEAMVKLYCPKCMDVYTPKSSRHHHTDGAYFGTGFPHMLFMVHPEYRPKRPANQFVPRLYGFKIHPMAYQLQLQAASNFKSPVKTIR

Clc1cccc(Nc2c3cnccc3nc3c2nn2ccncc32)c1 [Compound (1), N-(3-chlorophenyl)pyrazino[1′,2′:1,5]pyrazolo[4,3-b][1,6]naphthyridin-7-amine]
IC50 (MIAPaCa-2 (pancreas)): 1100 nM | IC50 (HCT116 (colon)): 1700 nM | IC50 (MDA-MB-231 (breast)): 5300 nM | IC50 (PC3 (prostate)): 1400 nM | IC50 (recombinant human CK2): 100000 nM | IC50 (HL60 (leukemia)): 2900 nM | IC50 (MCF7 (breast)): 6100 nM | IC50 (H1299 (lung)): 2500 nM | IC50 (A375 (melanoma)): 3600 nM
